Source: ChEMBL document CHEMBL2321663, “Alkaloids from Sri Lankan curry-leaf (Murraya koenigii) display melanogenesis inhibitory activity: structures of karapinchamines A and B” (Bioorg Med Chem, 2013)

What was measured:
[1] = Inhibition of theophylline-induced melanogenesis in mouse B16-4A5 cells at 3 uM after 72 hrs by spectrophotometric analysis relative to control; assay type: functional; conditions: B16-4A5, 72 h
[2] = Cytotoxicity against mouse theophylline-induced B16-4A5 cells assessed as cell viability at 10 uM after 72 hrs by WST8 assay relative to control; assay type: cell-based; conditions: read-out: Activity
[3] = Inhibition of theophylline-induced melanogenesis in mouse B16-4A5 cells after 72 hrs by spectrophotometric analysis relative to control; assay type: functional, cell-based
[4] = Cytotoxicity against mouse theophylline-induced B16-4A5 cells assessed as cell viability at 1 uM after 72 hrs by WST8 assay relative to control; assay type: cell-based; conditions: read-out: Activity
[5] = target: T1, Tyrosinase (Agaricus bisporus) (UniProt O42713); test: Inhibition of mushroom tyrosinase using L-DOPA as substrate after at 30 uM after 5 mins relative to control
T1 sequence (whole entry): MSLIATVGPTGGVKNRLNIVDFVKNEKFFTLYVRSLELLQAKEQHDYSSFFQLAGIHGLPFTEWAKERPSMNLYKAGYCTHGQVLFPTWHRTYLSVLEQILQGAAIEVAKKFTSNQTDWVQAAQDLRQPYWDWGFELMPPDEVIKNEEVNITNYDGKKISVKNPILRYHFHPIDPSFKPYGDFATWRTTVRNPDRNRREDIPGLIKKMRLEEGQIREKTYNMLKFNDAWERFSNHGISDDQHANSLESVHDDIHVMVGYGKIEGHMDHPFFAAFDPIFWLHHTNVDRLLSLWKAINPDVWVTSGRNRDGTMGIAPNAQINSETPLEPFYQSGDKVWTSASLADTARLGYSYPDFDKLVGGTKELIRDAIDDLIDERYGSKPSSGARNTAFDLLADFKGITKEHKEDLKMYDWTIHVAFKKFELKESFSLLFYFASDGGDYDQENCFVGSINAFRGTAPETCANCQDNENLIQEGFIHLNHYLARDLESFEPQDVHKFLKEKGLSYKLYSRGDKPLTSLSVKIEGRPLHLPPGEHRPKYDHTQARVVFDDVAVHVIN

[6] = target: T1, Tyrosinase (Agaricus bisporus); test: Inhibition of mushroom tyrosinase using L-DOPA as substrate after at 100 uM after 5 mins relative to control
[7] = target: T1, Tyrosinase (Agaricus bisporus); test: Inhibition of mushroom tyrosinase using L-DOPA as substrate after at 10 uM after 5 mins relative to control
[8] = Cytotoxicity against mouse theophylline-induced B16-4A5 cells assessed as cell viability at 3 uM after 72 hrs by WST8 assay relative to control; assay type: cell-based; conditions: read-out: Activity
[9] = Inhibition of theophylline-induced melanogenesis in mouse B16-4A5 cells at 1 uM after 72 hrs by spectrophotometric analysis relative to control; assay type: functional; conditions: B16-4A5, 72 h
[10] = Cytotoxicity against mouse theophylline-induced B16-4A5 cells assessed as cell viability at 30 uM after 72 hrs by WST8 assay relative to control; assay type: cell-based; conditions: read-out: Activity
[11] = target: T1, Tyrosinase (Agaricus bisporus); test: Inhibition of mushroom tyrosinase using L-DOPA as substrate after at 3 uM after 5 mins relative to control
[12] = target: T1, Tyrosinase (Agaricus bisporus); test: Inhibition of mushroom tyrosinase using L-DOPA as substrate after at 1 uM after 5 mins relative to control
[13] = Inhibition of theophylline-induced melanogenesis in mouse B16-4A5 cells at 30 uM after 72 hrs by spectrophotometric analysis relative to control; assay type: functional; conditions: B16-4A5, 72 h
[14] = Inhibition of theophylline-induced melanogenesis in mouse B16-4A5 cells at 10 uM after 72 hrs by spectrophotometric analysis relative to control; assay type: functional; conditions: B16-4A5, 72 h
[15] = Inhibition of theophylline-induced melanogenesis in mouse B16-4A5 cells at 300 uM after 72 hrs by spectrophotometric analysis relative to control; assay type: functional; conditions: B16-4A5, 72 h
[16] = Inhibition of theophylline-induced melanogenesis in mouse B16-4A5 cells at 100 uM after 72 hrs by spectrophotometric analysis relative to control; assay type: functional; conditions: B16-4A5, 72 h
[17] = Inhibition of theophylline-induced melanogenesis in mouse B16-4A5 cells at 1000 uM after 72 hrs by spectrophotometric analysis relative to control; assay type: functional; conditions: B16-4A5, 72 h

| Compound | inhibition at 3 µM [1] [%] | viability at 72 h, 10 µM [2] [%] | IC50 [3] [µM] | viability at 72 h, 1 µM [4] [%] | inhibition [5] [%] | inhibition [6] [%] | inhibition [7] [%] | viability at 72 h, 3 µM [8] [%] | inhibition at 1 µM [9] [%] | viability at 72 h, 30 µM [10] [%] | inhibition [11] [%] | inhibition [12] [%] | inhibition at 30 µM [13] [%] | inhibition at 10 µM [14] [%] | inhibition at 300 µM [15] [%] | inhibition at 100 µM [16] [%] | inhibition at 1000 µM [17] [%] |
| --- | --- | --- | --- | --- | --- | --- | --- | --- | --- | --- | --- | --- | --- | --- | --- | --- | --- |
| CC(C)=CCCC1(C)C=Cc2c(ccc3c2[nH]c2ccc(C)cc23)O1 (centres undefined) | 60 | 103 | 2.2 | 110 | -0.3 | -3.4 | -1.1 | 117 | 25.9 | 63.9 | -0.7 | 7.4 | 78.4 | 85.2 |  |  |  |
| COc1cccc2c1[nH]c1c3c(c(C)cc12)OC(C)(CCC=C(C)C)C=C3 (centres undefined) | 40.4 | 73.8 | 3.8 | 101 | 2.7 | -0.8 | -2.8 | 97.3 | 6.8 | 46.3 | -2.8 | -1 |  | 71.8 |  |  |  |
| COc1ccc2c(c1)[nH]c1c3c(c(C)cc12)O[C@](C)(CCC=C(C)C)C=C3 | 8.7 | 94.9 | 15.7 | 105 | 0.9 | 4.2 | 0.1 | 98.7 | 10.9 | 66.3 | 0.1 | 0.1 | 58.3 | 40.8 |  |  |  |
| Oc1cccc2[nH]c3ccccc3c12 | 32.9 | 104 | 13.5 | 101 | 0.9 | 3.3 | 0.5 | 100 | 24.9 | 131 | 0.3 | 0.4 | 66.9 | 36.1 |  |  |  |
| Cc1cc2c3ccc(O)cc3n3c2c2c1O[C@@]1(C)CC[C@H]([C@H]2C1)C3(C)C (relative stereo) | 50.8 | 76.8 | 2.9 | 101 | 15.3 | 20.2 | 3.5 | 94.4 | 26.9 | 71.1 | -0.6 | -1.3 | 74.3 | 66 |  |  |  |
| OC[C@H]1O[C@@H](Oc2ccc(O)cc2)[C@H](O)[C@@H](O)[C@@H]1O [ARBUTIN] |  |  | 174 |  |  |  |  |  |  |  |  |  | 20.4 |  | 61.5 | 38.1 | 83.7 |
| c1ccc2c(c1)[nH]c1ccccc12 [CARBAZOLE] | 33.5 | 105 | > 100 | 108 | 1.7 | 0.1 | -2.2 | 108 | 31.3 | 94.2 | -1.8 | 1 | 33.8 | 36.8 |  |  |  |
| COc1ccc2c([nH]c3cc(O)c(C)cc32)c1C/C=C(\C)CCC=C(C)C [EUCHRESTINE B] | 40.6 | 83.7 | 4.1 | 105 | -6.4 | -1.1 | -4.3 | 102 | 18.2 | 1.9 | -4.4 | -6.5 |  | 74.2 |  |  |  |
| CC(C)=CCC/C(C)=C/Cc1c(O)ccc2[nH]c3ccc(C)cc3c12 [EUSTIFOLINE C] | 25.2 | 79.2 | 8.3 | 104 | 5.9 | 16.1 | 2.3 | 96.5 | 19.7 | 9.9 | 2.7 | 1 |  | 55.9 |  |  |  |
| COc1ccc2[nH]c3c4c(c(C)cc3c2c1)OC(C)(C)C=C4 [KOENIMBINE] | 77 | 66.6 | 1.2 | 114 | 1 | 4.3 | -0.1 | 92.4 | 42.5 | 37.9 | -1 | 0.7 |  | 86.2 |  |  |  |
| CC(C)=CCCC1(C)C=Cc2c(c(C)cc3c2[nH]c2ccccc23)O1 (centres undefined) [MAHANIMBINE] | 63.9 | 34.4 | 1.4 | 94.3 | 2.7 | 6.2 | -0.4 | 68.7 | 43.3 | 35.1 | -3.2 | -1.3 |  |  |  |  |  |
